From patent US11986452B2, “Methods of reducing the risk of heart failure” (Amarin Pharmaceuticals Ireland Limited, priority 2021, dated 2024) come the findings set out here.

This test concerns statin-treated patients with established atherosclerosis or diabetes plus risk factor. The experiment in a line: Example 2: recurrent and total ischemic events analysis (Andersen-Gill, Wei-Lin-Weissfeld). The class given is in vivo, human. As to conditions: for Total key secondary endpoint events: HR vs placebo: without adjustment for stratification differences. An excerpt: The following study was a multi-center, placebo-controlled clinical trial the details of which are described above in Example 1, the REDUCE-IT design. […] Randomization was stratified by cardiovascular risk cohort (i.e., secondary or primary prevention), use of ezetimibe, and by geographic region.
The primary outcome for the study was total recurrent events consisting of the composite of cardiovascular death, nonfatal myocardial infarction, nonfatal stroke, coronary revascularization, or hospitalization for unstable angina. Recurrent event analyses were also performed for the key secondary endpoint, a composite of cardiovascular death, non-fatal myocardial infarction, or non-fatal stroke. For each of these composite endpoints, the effects of icosapent ethyl in the secondary and primary prevention strata were examined separately.
Demographic and baseline disease characteristics are presented using frequencies and percentages for categorical variables and medians with interquartile ranges for continuous variables. Between treatment group comparisons were derived using the chi-square test for categorical variables and Wilcoxon rank test for continuous variables. All clinical endpoint events used in the efficacy analyses were adjudicated by an independent Clinical Endpoint Committee (CEC) who were blinded to the treatment assignment. Since the primary efficacy endpoint was the time from randomization to the first occurrence of any component of the composite endpoint, and recurrence of such events within each patient is possible, a pre-specified analysis using a Cox proportional-hazard with the counting-process formulation of Andersen and Gill was performed to model the first and all recurrent cardiovascular events. Hazard ratios (HR) and corresponding 95% confidence intervals (CI) are reported from this model. In addition, as a marginal model and an extension of survival models based on the Cox proportional hazard model, the modified Wei-Lin-Weissfeld (WLW) method for analysis of recurrent events in the presence of deaths was carried out as a supportive analysis. In addition, as pre-specified, a recurrent event analysis using the Andersen-Gill and Wei-Lin-Weissfeld methods were carried out for the individual primary event components other than CV death. Though not pre-specified, additional recurrent event analyses were performed for the key secondary endpoint, which is a composite of CV death, non-fatal MI, or non-fatal stroke, and for the primary endpoint and the key secondary endpoint in the primary and secondary prevention strata to explore further the consistency of clinical benefit of icosapent ethyl. In subgroup analyses of the two cardiovascular risk strata (i.e., primary and secondary prevention), site-level discrepancies in cardiovascular risk group assignment occurring at entry and detected during the study (1.8%) were adjusted to conform with documented medical history data prior to randomization. All efficacy analyses were performed according to the intention-to-treat principle. All tests were based on a 2-sided nominal significance level of 5% with no adjustments for multiple comparisons.

SMILES strings stand for the structures.

As to `CC/C=C\C/C=C\C/C=C\C/C=C\C/C=C\CCCC(=O)OCC` [icosapent ethyl, eicosapentaenoic acid ethyl ester], the “Total key secondary endpoint: HR vs placebo” value by setting is: (primary prevention stratum) 0.71; (secondary prevention stratum) 0.70. Further, the “Total primary endpoint events: HR vs placebo” value by setting is: (primary prevention stratum, adjusted stratification) 0.79; (primary prevention stratum, without adjusting for stratification differences) 0.86; (secondary prevention stratum, adjusted stratification) 0.66; (secondary prevention stratum, without adjusting for stratification differences) 0.65. For the same compound, the “Total key secondary endpoint events: HR vs placebo” value is 0.78 (primary prevention) and 0.69 (secondary prevention stratum).
